Data as given in patent EP0115472A2, “Pyrrolidinon derivatives and process for their preparation” (CIBA-GEIGY AG, priority 1983, dated 1984).

System: Mäusen
Assay: step down passive avoidance test (improvement of memory performance)
Format: in vivo, Mäuse
Details: Mus musculus, ip; mice, i.p. within 10 s after foot shock; retest after 24 h; compared with solvent controls; read-out: Dosis, bei der sich eine Verbesserung der Gedächtnisleistung zeigen lässt
Excerpt: Zur unmittelbaren Messung der Verbesserung der Gedächtnisleistung wird ein anderer passiver Vermeidungstest (step down passive avoidance test, Psychopharmacol. 63, 297-300 [1979]) verwendet: • Die Testvorrichtung besteht aus einer mit Tageslicht normal beleuchteten Box (50 x 50 x 50 cm) mit einem elektrisch leitenden Gitterrost, dessen Gitterstäbe (6 mm Durchmesser) in einem Abstand von jeweils 13 mm angeordnet sind. In der Mitte des Gitterrostes ist eine hölzerne Plattform (10 mm Höhe, 67 mm Durchmesser) angebracht, welche von einer Plastikröhre (20 cm hoch, 68 mm innerer Durchmesser) umgeben ist. Zur Durchführung des Trainings werden Gruppen von jeweils 30 männlichen Mäusen mit einem Körpergewicht von 20-22g verwendet, indem jeweils ein Tier auf die von der Plastikröhre umgebene Plattform gesetzt, nach 10 Sekunden die Plastikröhre entfernt und die Zeitdauer gemessen wird, welche das Tier zum Hinabsteigen und Berühren des Gitterrostes mit allen 4 Pfoten benötigt. Wenn alle 4 Pfoten den Gitterrost berühren, wird ein Fussschock (1 mA, 50 Hz, 1 Sekunde) verabreicht. Innerhalb von 10 Sekunden nach Verabreichung des Fussschocks werden die Testsubstanzen in Dosen von 3 mg/kg, 10 mg/kg und 30 mg/kg (für jede Dosis werden 30 Mäuse verwendet) als Lösung in physiologischer NaCl-Lösung oder deren Lösungsmittel (physiologische Natriumchloridlösung = Placebo) intraperitoneal verabreicht. […]

For NC(=O)CNC(=O)CNC(=O)CN1CCCC1=O [N-[(2-Oxo-1-pyrrolidinyl)-acetyl]-glycyl-glycinamid], which minimal effective dose is on record?
The minimal effective dose was 10 mg/kg.
